Results on six molecules are retold here after patent US9822179B2, “Recombinant TNF ligand family member polypeptides with antibody binding domain and uses therefor” (UNIVERSITAT STUTTGART, priority 2011, dated 2017).

Where a SMILES comes first, the peptide text is derived from it. The star is where a group is joined. Cbz = O=C(OCc1ccccc1)*; CH2F = FC*

Experiment [1] concerns EGFR+ Huh-7 hepatocellular carcinoma cells. Briefly: EGFR-directed induction of cell death in Huh-7 cells, serial dilutions of protein, crystal violet. It counts as cell-based. Particulars: 250 ng/ml bortezomib, caspase inhibitors 10 μM, 16 h. Here is the method:
(§1) After 16 h, cell viability was determined using MTT staining (Colo 205) or crystal violet staining (Huh-7) and data were normalized using bortezomib-treated cells as control (mean SEM, n=3). (B) 1×10^4 Colo205 cells per well were grown in 96-well plates using medium with 0.1% FCS. […] (C) 1×10^4 Huh-7 cells per well were grown in 96-well plates and treated with 20 ng/ml bortezomib or with a combination of bortezomib and 10 μM zVADfmk.
After 16 h, cell viability was determined using crystal violet staining.
(§2) As a positive control, cells were killed with 0.25% Triton X-100. Cell death assays with Huh-7 and HepG2 cells were performed in the absence (FIG. 6, Jurkat cells) or presence of Bortezomib (FIG. 7, Huh-7: 250 ng/ml, FIG. 6, HepG2: 500 ng/ml, FIG. 18, Huh-7: 250 ng/ml), Selleck Chemicals, Houston, Tex.). Bortezomib was added 30 min prior incubation with the proapoptotic ligands to sensitize cells for the induction of cell death (FIGS. 6, 7). Alternatively, cells were preincubated for 30 min with the indicated concentrations of TRAIL fusion proteins followed by addition of serial dilutions of Bortezomib (FIG. 8). […] After 16 h incubation, cell viability was determined either by crystal violet staining (Huh-7, HepG2) or the MTT method (Jurkat) (Wuest et al., 2002). In the latter case a lysis buffer consisting of 15% SDS in DMF/H2O (1:1), pH 4.5 (with […]) acetic acid) was used.

Another experiment deals with Colo205 cells. As to the kind of experiment: Caspase dependence of cell death in Colo205 cells, MTT. The format is cell-based. Particulars: 25 ng/ml bortezomib, caspase inhibitors 20 μM, 16 h. The protocol: as §1
The test system of a further experiment is Colo205 xenograft tumor. As to the kind of experiment: Colo205 xenograft tumor model.
The subject of another experiment is Jurkat cells. As to the kind of experiment: Target-independent induction of cell death, Jurkat, MTT assay. It counts as cell-based. Conditions: not sensitized; SEQ ID NO: 102 compared to KillerTRAIL. The protocol: (§3) Cell viability was determined using crystal violet staining. Results from four independent experiments are shown (mean±S.E.M.). (B) Jurkat cells (1×10^5/well) were used for a similar experiment as described in (A). Jurkat cells were not sensitized. Results from three independent experiments are shown (mean±S.E.M.). Viability of Jurkat cells was determined using the MTT assay.
as §2
(Tetrazolium assays rely on reduction of a dye to a coloured formazan, in cell work by metabolically active cells.)

Experiment [2] has as its system Huh-7 hepatocellular carcinoma cells. Briefly: Cell death in Huh-7 cells, constant protein concentration, serial dilutions of Bortezomib. Conditions: protein concentration of 1 nM and above. The format is cell-based. The protocol:
Results from three independent experiments are shown (mean±S.E.M.).
as §2

Experiment [3] relates to EGFR low/negative HepG2 cells. As to the kind of experiment: Target-independent induction of cell death, HepG2, crystal violet. The format is cell-based. Conditions: comparator named in value. Here is the method:
as §3, §2

[4] abbreviates: 8 daily i.p. injections of 0.45 nmol + bortezomib every second day.

Protocol for Colo205 xenograft tumor: Arrows, protein application; asterisks, bortezomib application; symbols, mean of tumor volumes 95% confidence interval (CI), n=12 tumors/treatment group.
8-week-old female NMRI nu/nu mice (Janvier) were injected s.c. with 3×10^6 Colo205 cells in 100 μl PBS at left and right dorsal sides. Treatment started 6 days after tumor cell inoculation when tumors reached about 100 mm^3. […] On day 1, 3, 5 and 7 of treatment, mice received additionally 5 μg bortezomib in 100 μl PBS i.p. three hours before protein injection. The control groups received 100 μl PBS or 5 μg bortezomib at the same time intervals. […] The Tukey's test was applied for statistics.

Regarding `COC(=O)CC[C@H](NC(=O)[C@H](CC(=O)OC)NC(=O)OCc1ccccc1)C(=O)N[C@H](C(=O)N[C@@H](CC(=O)OC)C(=O)CF)C(C)C` [zDEVDfmk], the “block of TRAIL fusion protein-induced cell death by inhibitor” value (“block … by inhibitor” for short) (in experiment [1]; in the experiment on Colo205 cells) was “nearly complete block of cell death” each time.
As to `CC(C)C[C@H](NC(=O)[C@H](Cc1ccccc1)NC(=O)c1cnccn1)B(O)O` [Bortezomib], the “effect on tumor growth” value in the experiment with Colo205 xenograft tumor (bortezomib by itself, 5 μg i.p. on day 1, 3, 5 and 7) is on record as “did not interfere with progressive tumor growth”.
As to `COC(=O)C[C@H](NC(=O)[C@H](C)NC(=O)[C@@H](NC(=O)OCc1ccccc1)C(C)C)C(=O)CF` [zVADfmk] (Cbz-Val-Ala-Asp(OMe)-CH2F), the “block … by inhibitor” value (in experiment [1]; with Colo205 cells) was “nearly complete block of cell death” in each case.
As for `CN1C(=O)C(Cc2c[nH]c3ccccc23)NC1=S` (stereo not drawn) [necrostatin-1], the “block … by inhibitor” value (in experiment [1]; in the experiment with Colo205 cells) was “failure of necrostatin-1 to prevent or reduce cell death” each time.

B1: SEQ ID NO: 104: single chain TRAIL, three copies of TRAIL 95-281 linked by (GGGS)2 linkers, N-terminal FLAG tag, no component B (protein)
chain: TSEETISTVQEKQQNISPLVRERGPQRVAAHITGTRGRSNTLSSPNSKNEKALGRKINSWESSRSGHSFLSNLHLRNGELVIHEKGFYYIYSQTYFRFQEEIKENTKNDKQMVQYIYKYTSYPDPILLMKSARNSCWSKDAEYGLYSIYQGGIFELKENDRIFVSVTNEHLIDMDHEASFFGAFLVGGGGSGGGSTSEETISTVQEKQQNISPLVRERGPQRVAAHITGTRGRSNTLSSPNSKNEKALGRKINSWESSRSGHSFLSNLHLRNGELVIHEKGFYYIYSQTYFRFQEEIKENTKNDKQMVQYIYKYTSYPDPILLMKSARNSCWSKDAEYGLYSIYQGGIFELKENDRIFVSVTNEHLIDMDHEASFFGAFLVGGGGSGGGSTSEETISTVQEKQQNISPLVRERGPQRVAAHITGTRGRSNTLSSPNSKNEKALGRKINSWESSRSGHSFLSNLHLRNGELVIHEKGFYYIYSQTYFRFQEEIKENTKNDKQMVQYIYKYTSYPDPILLMKSARNSCWSKDAEYGLYSIYQGGIFELKENDRIFVSVTNEHLIDMDHEASFFGAFLVG
modifications: scTRAIL fusion protein
notes: single chain TRAIL, three copies of TRAIL 95-281 linked by (GGGS)2 linkers, N-terminal FLAG tag, no component B
Regarding B1, the “apoptosis-inducing activity on Jurkat cells” value in the experiment on Jurkat cells is “no reactivity”. Further, the “induction of apoptosis when sensitized with Bortezomib” value in experiment [2] is recorded as “nearly equally efficient in induction of complete apoptosis”. For the same molecule, in the experiment on Colo205 xenograft tumor (setting [4]), the “effect on tumor growth” value is “delayed tumor growth” and the regression of tumors entry was “did not induce regression of tumors”.

B2: KillerTRAIL: commercially available highly active TRAIL preparation (Enzo Lifesciences / Axxora) (protein, UniProt P50591 39-281, looked up)
extracellular domain: TNELKQMQDKYSKSGIACFLKEDDSYWDPNDEESMNSPCWQVKWQLRQLVRKMILRTSEETISTVQEKQQNISPLVRERGPQRVAAHITGTRGRSNTLSSPNSKNEKALGRKINSWESSRSGHSFLSNLHLRNGELVIHEKGFYYIYSQTYFRFQEEIKENTKNDKQMVQYIYKYTSYPDPILLMKSARNSCWSKDAEYGLYSIYQGGIFELKENDRIFVSVTNEHLIDMDHEASFFGAFLVG
modifications: extracellular domain
As for B2, in experiment [3], the “bioactivity on target negative cells, comparison in words” value is on record as “comparable with the activity of SEQ ID NO: 96”.
